The text below walks through data of ChEMBL document CHEMBL1145714, “Activity of Parthenolide at 5HT2A receptors” (J Nat Prod, 1997).

What is called Ki is the dissociation constant of the complex between target and ligand, obtained from inhibition or displacement. The low end stands for a stronger hold on the target, the high end for a looser hold on the target.

Assay [1] addresses T1, 5-hydroxytryptamine receptor 2A (Rattus norvegicus, UniProt P14842). Briefly: Displacement of [3H]ketanserin from rat 5HT2A receptor expressed in mouse NIH3T3 cells. Type of assay: cell-based.
A short description of assay [2]: Displacement of [3H]ketanserin from 5HT2A receptor in rabbit cerebral cortex membrane. In kind it is cell membranes, Oryctolagus cuniculus. A general note: Displacement assays read how much labelled ligand stays bound in the presence of the test substance.
Assay [3] concerns the target T1, 5-hydroxytryptamine receptor 2A. Briefly: Displacement of [3H]ketanserin from 5HT2A receptor in rat brain membrane. In kind it is cell membranes.

T1 sequence (P14842 whole entry): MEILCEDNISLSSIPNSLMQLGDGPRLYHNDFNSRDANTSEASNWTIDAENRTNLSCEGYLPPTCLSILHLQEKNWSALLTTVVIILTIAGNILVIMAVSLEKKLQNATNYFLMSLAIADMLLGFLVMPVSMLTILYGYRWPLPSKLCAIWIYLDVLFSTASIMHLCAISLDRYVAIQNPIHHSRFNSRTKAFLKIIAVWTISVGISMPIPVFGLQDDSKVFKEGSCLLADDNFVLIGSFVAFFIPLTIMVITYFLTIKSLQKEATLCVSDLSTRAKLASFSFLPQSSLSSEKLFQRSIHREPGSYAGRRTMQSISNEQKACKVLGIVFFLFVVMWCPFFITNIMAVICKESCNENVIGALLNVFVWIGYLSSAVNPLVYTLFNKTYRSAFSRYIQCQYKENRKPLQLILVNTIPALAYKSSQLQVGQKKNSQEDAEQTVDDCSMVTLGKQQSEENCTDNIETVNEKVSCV

On to `C=C1C(=O)O[C@@H]2C3O[C@]3(C)CC/C=C(\C)CC[C@@H]12` (some centres undefined), for which the Ki in assay [1] turned out to be 100 µM; in assay [2], 230 µM; in assay [3] it was 250 µM.

For `CN1C[C@@H](NS(=O)(=O)N(C)C)C[C@@H]2c3cccc4c3c(cn4C)C[C@H]21` [MESULERGINE], the Ki in assay [2] was 0.0083 µM.
